In PubChem BioAssay (NCI):
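Each compound was tested at five concentrations against cells in 96-well plates for 48 hours. TGI: total growth inhibition.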

Assays:
Test in all cases: DTP human tumour cell line panel, 48 h
HCC-2998 colon = tested on: HCC-2998 colon
CAKI-1 renal = tested on: CAKI-1 renal
LOX IMVI melanoma = tested on: LOX IMVI melanoma
786-0 renal = tested on: 786-0 renal
HT29 colon = tested on: HT29 colon
HL-60(TB) leukemia = tested on: HL-60(TB) leukemia
SR leukemia = tested on: SR leukemia
RXF 393 renal = tested on: RXF 393 renal
SNB-75 CNS = tested on: SNB-75 CNS
SK-OV-3 ovarian = tested on: SK-OV-3 ovarian
SNB-19 CNS = tested on: SNB-19 CNS
MCF7 breast = tested on: MCF7 breast
HOP-92 NSCLC = tested on: HOP-92 NSCLC
SK-MEL-2 melanoma = tested on: SK-MEL-2 melanoma
SW-620 colon = tested on: SW-620 colon
HCT-116 colon = tested on: HCT-116 colon
TK-10 renal = tested on: TK-10 renal
OVCAR-5 ovarian = tested on: OVCAR-5 ovarian
SF-295 CNS = tested on: SF-295 CNS
M14 melanoma = tested on: M14 melanoma
NCI-H23 lung = tested on: NCI-H23 lung
A498 renal = tested on: A498 renal
HCT-15 colon = tested on: HCT-15 colon
HS 578T breast = tested on: HS 578T breast
MDA-N = tested on: MDA-N
SK-MEL-5 melanoma = tested on: SK-MEL-5 melanoma
OVCAR-8 ovarian = tested on: OVCAR-8 ovarian
UACC-62 melanoma = tested on: UACC-62 melanoma
DU-145 prostate = tested on: DU-145 prostate
PC-3 prostate = tested on: PC-3 prostate
SN12C renal = tested on: SN12C renal
RPMI-8226 leukemia = tested on: RPMI-8226 leukemia
SF-539 CNS = tested on: SF-539 CNS
NCI-H460 lung = tested on: NCI-H460 lung
NCI-H522 lung = tested on: NCI-H522 lung
OVCAR-4 ovarian = tested on: OVCAR-4 ovarian
IGROV1 ovarian = tested on: IGROV1 ovarian
MDA-MB-231 breast = tested on: MDA-MB-231 breast
UO-31 renal = tested on: UO-31 renal
OVCAR-3 ovarian = tested on: OVCAR-3 ovarian
UACC-257 melanoma = tested on: UACC-257 melanoma
MDA-MB-435 = tested on: MDA-MB-435
ACHN renal = tested on: ACHN renal
T-47D breast = tested on: T-47D breast
SF-268 CNS = tested on: SF-268 CNS
MALME-3M melanoma = tested on: MALME-3M melanoma
NCI/ADR-RES ovarian = tested on: NCI/ADR-RES ovarian
KM12 colon = tested on: KM12 colon
NCI-H226 lung = tested on: NCI-H226 lung
MOLT-4 leukemia = tested on: MOLT-4 leukemia
EKVX NSCLC = tested on: EKVX NSCLC
HOP-62 NSCLC = tested on: HOP-62 NSCLC
COLO 205 colon = tested on: COLO 205 colon
A549 NSCLC = tested on: A549 NSCLC
K-562 leukemia = tested on: K-562 leukemia
SK-MEL-28 melanoma = tested on: SK-MEL-28 melanoma
CCRF-CEM leukemia = tested on: CCRF-CEM leukemia
BT-549 breast = tested on: BT-549 breast
U251 CNS = tested on: U251 CNS

CCc1ccc(/C=C/C(=O)C2CN(CC)CCC2(O)/C=C/c2ccc(CC)cc2)cc1 (centres undefined)
TGI (HCC-2998 colon): 3.99 µM | TGI (CAKI-1 renal): 18.7 µM | TGI (LOX IMVI melanoma): 2.9 µM | TGI (786-0 renal): 3.22 µM | TGI (HT29 colon): 3.79 µM | TGI (HL-60(TB) leukemia): > 24.6 µM | TGI (SR leukemia): 3.99 µM | TGI (RXF 393 renal): 8.43 µM | TGI (SNB-75 CNS): 21.6 µM | TGI (SK-OV-3 ovarian): 25 µM | TGI (SNB-19 CNS): 23.3 µM | TGI (MCF7 breast): 7.34 µM | TGI (HOP-92 NSCLC): 5.33 µM | TGI (SK-MEL-2 melanoma): 18.7 µM | TGI (SW-620 colon): 4.4 µM | TGI (HCT-116 colon): 3.25 µM | TGI (TK-10 renal): 5.54 µM | TGI (OVCAR-5 ovarian): 9.69 µM | TGI (SF-295 CNS): 8.9 µM | TGI (M14 melanoma): 7.11 µM | TGI (NCI-H23 lung): 11.5 µM | TGI (A498 renal): 23.1 µM | TGI (HCT-15 colon): 8.27 µM | TGI (HS 578T breast): 8.67 µM | TGI (MDA-N): 10.6 µM | TGI (SK-MEL-5 melanoma): 11.2 µM | TGI (OVCAR-8 ovarian): 11.6 µM | TGI (UACC-62 melanoma): 16.2 µM | TGI (DU-145 prostate): 21.6 µM | TGI (PC-3 prostate): 12.4 µM | TGI (SN12C renal): 14.1 µM | TGI (RPMI-8226 leukemia): 5.24 µM | TGI (SF-539 CNS): 6 µM | TGI (NCI-H460 lung): 7.26 µM | TGI (NCI-H522 lung): 4.79 µM | TGI (OVCAR-4 ovarian): 14.7 µM | TGI (IGROV1 ovarian): 4.35 µM | TGI (MDA-MB-231 breast): 5.07 µM | TGI (UO-31 renal): 11.6 µM | TGI (OVCAR-3 ovarian): 3.3 µM | TGI (UACC-257 melanoma): 19.3 µM | TGI (MDA-MB-435): 4.07 µM | TGI (ACHN renal): 3.68 µM | TGI (T-47D breast): 10.1 µM | TGI (SF-268 CNS): 12 µM | TGI (MALME-3M melanoma): 20 µM | TGI (NCI/ADR-RES ovarian): 12.4 µM | TGI (KM12 colon): 3.5 µM | TGI (NCI-H226 lung): 20.1 µM | TGI (MOLT-4 leukemia): 6.03 µM | TGI (EKVX NSCLC): 17.4 µM | TGI (HOP-62 NSCLC): 3.54 µM | TGI (COLO 205 colon): 6.21 µM | TGI (A549 NSCLC): 20 µM | TGI (K-562 leukemia): 8.94 µM | TGI (SK-MEL-28 melanoma): 3.04 µM | TGI (CCRF-CEM leukemia): 5.16 µM | TGI (BT-549 breast): 11.2 µM | TGI (U251 CNS): 3.41 µM
